Among the data in ChEMBL document CHEMBL1687797, “A mecA-negative strain of methicillin-resistant Staphylococcus aureus with high-level β-lactam resistance contains mutations in three genes” (2010) are MIC values, retold here.

≈ marks a conversion by molar mass, not a printed value. A value given as a limit tells only on which side of the number the result lay.

Common to all, as to assay type: functional
For experiment [1], the system named is Staphylococcus aureus. The experiment in a line: Antimicrobial activity against methicillin-, tetracycline-susceptible and chromosomal mecA deficient Staphylococcus aureus COLnex.
Experiment [2] relates to Staphylococcus aureus. Description: Antimicrobial activity against beta-lactam-resistant and chromosomal mecA deficient Staphylococcus aureus CRB harboring PBP4 E183A F241R, GdpP N182K and AcrB I960V mutant genes selected after 21 days of serial passage in ceftobiprole. The following applies: 504 h.
Experiment [3] concerns Staphylococcus aureus. The experiment in a line: Antimicrobial activity against methicillin-resistant and tetracycline-sensitive Staphylococcus aureus COLn.
The subject of experiment [4] is Staphylococcus aureus. Description: Antimicrobial activity against beta-lactam-resistant and chromosomal mecA deficient Staphylococcus aureus CRB harboring PBP4 E183A F241R, GdpP N182K and AcrB I960V mutant genes selected after 21 days of serial passage. The conditions noted are these: 504 h.
In experiment [5] the test system is Staphylococcus aureus. The experiment in a line: Antimicrobial activity against methicillin-resistant Staphylococcus aureus COL.

In the case of `CC1(C)S[C@@H]2[C@H](NC(=O)[C@H](N)c3ccccc3)C(=O)N2[C@H]1C(=O)O` [AMPICILLIN], the minimal inhibitory concentration (MIC) (in general, the least concentration at which growth counts as inhibited) in experiment [1] is less than 0.25 µg/mL; in experiment [2] it was 256 µg/mL (≈ 733 µM).

As to `Cc1nnc(SCC2=C(C(=O)O)N3C(=O)[C@@H](NC(=O)Cn4cnnn4)[C@H]3SC2)s1` [CEFAZOLIN], the minimum inhibitory concentration (MIC) is 0.5 µg/mL (≈ 1.1 µM) in experiment [1], 256 µg/mL (≈ 563 µM) in experiment [3] and more than 256 µg/mL in experiment [2].

In the case of `CO[C@@]1(NC(=O)Cc2cccs2)C(=O)N2C(C(=O)O)=C(COC(N)=O)CS[C@@H]21` [CEFOXITIN], the minimum inhibitory concentration (MIC) in experiment [1] came out at 4 µg/mL (≈ 9.36 µM); in experiment [3], 256 µg/mL (≈ 599 µM); in experiment [2], 8 µg/mL (≈ 18.7 µM).

As to `Nc1nc(/C(=N/O)C(=O)N[C@@H]2C(=O)N3C(C(=O)O)=C(/C=C4\CCN([C@@H]5CCNC5)C4=O)CS[C@H]23)ns1` [CEFTOBIPROLE], the minimum inhibitory concentration (MIC) in experiment [1] was less than 0.25 µg/mL; in experiment [4], 128 µg/mL (≈ 239 µM); in experiment [3], 1 µg/mL (≈ 1.87 µM); in experiment [5] it was 1 µg/mL (≈ 1.87 µM); in experiment [2] it was 128 µg/mL (≈ 239 µM).

In the case of `CO/N=C(\C(=O)N[C@@H]1C(=O)N2C(C(=O)O)=C(CSc3nc(=O)c(O)nn3C)CS[C@H]12)c1csc(N)n1` [CEFTRIAXONE], the MIC is 4 µg/mL (≈ 7.21 µM) in experiment [1], more than 256 µg/mL in experiment [3] and 256 µg/mL (≈ 462 µM) in experiment [2].

Take `CCOc1ccc2ccccc2c1C(=O)N[C@@H]1C(=O)N2[C@@H]1SC(C)(C)[C@@H]2C(=O)O` [NAFCILLIN]: the values for the MIC in experiment [1], in experiment [3] and in experiment [2] were 0.5 µg/mL (≈ 1.21 µM), 256 µg/mL (≈ 618 µM) and 128 µg/mL (≈ 309 µM), respectively.
